Measured values as given in PubChem BioAssay (NCI).
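Where inhibition never reached the appropriate level, the endpoint shown equals the highest concentration tested. Otherwise, values were interpolated linearly from a five-concentration, 48-hour dose response in 96-well plates. TGI: concentration producing complete growth inhibition.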

Tests used:
Assay in all cases: inhibition of tumour cell growth, NCI panel, 48 h
[1] = tested on: HOP-92 NSCLC
[2] = tested on: SK-MEL-2 melanoma
[3] = tested on: U251 CNS
[4] = tested on: M19-MEL melanoma
[5] = tested on: KM12 colon
[6] = tested on: SK-MEL-28 melanoma
[7] = tested on: HOP-62 NSCLC
[8] = tested on: HCT-116 colon
[9] = tested on: SNB-19 CNS
[10] = tested on: SN12C renal
[11] = tested on: SW-620 colon
[12] = tested on: EKVX NSCLC
[13] = tested on: SK-MEL-5 melanoma
[14] = tested on: LOX IMVI melanoma
[15] = tested on: HCT-15 colon
[16] = tested on: UACC-257 melanoma
[17] = tested on: IGROV1 ovarian
[18] = tested on: TK-10 renal
[19] = tested on: NCI-H226 lung
[20] = tested on: DMS 273 small cell lung
[21] = tested on: UO-31 renal
[22] = tested on: DMS 114 small cell lung
[23] = tested on: CAKI-1 renal
[24] = tested on: RXF-631 renal
[25] = tested on: OVCAR-3 ovarian
[26] = tested on: RPMI-8226 leukemia
[27] = tested on: A549 NSCLC
[28] = tested on: HT29 colon
[29] = tested on: CCRF-CEM leukemia
[30] = tested on: SF-539 CNS
[31] = tested on: K-562 leukemia
[32] = tested on: 786-0 renal
[33] = tested on: SK-OV-3 ovarian
[34] = tested on: HOP-18 NSCLC
[35] = tested on: NCI-H460 lung
[36] = tested on: OVCAR-4 ovarian
[37] = tested on: UACC-62 melanoma
[38] = tested on: OVCAR-5 ovarian
[39] = tested on: KM20L2 colon
[40] = tested on: DLD-1 colon
[41] = tested on: SNB-78 CNS
[42] = tested on: HCC-2998 colon
[43] = tested on: COLO 205 colon
[44] = tested on: ACHN renal
[45] = tested on: SF-295 CNS
[46] = tested on: MALME-3M melanoma
[47] = tested on: M14 melanoma
[48] = tested on: XF 498 CNS
[49] = tested on: SNB-75 CNS
[50] = tested on: NCI-H23 lung
[51] = tested on: SF-268 CNS
[52] = tested on: A498 renal
[53] = tested on: OVCAR-8 ovarian
[54] = tested on: LXFL 529 NSCLC
[55] = tested on: RXF 393 renal
[56] = tested on: NCI-H522 lung
[57] = tested on: MOLT-4 leukemia
[58] = tested on: HL-60(TB) leukemia
[59] = tested on: SR leukemia

SMILES: O=c1c2cc(Br)cc(Br)c2[nH]c(=S)n1-c1ccccc1
- TGI [1]: > 100 µM
- TGI [2]: > 100 µM
- TGI [3]: > 100 µM
- TGI [4]: > 100 µM
- TGI [5]: > 100 µM
- TGI [6]: > 100 µM
- TGI [7]: > 100 µM
- TGI [8]: > 100 µM
- TGI [9]: > 100 µM
- TGI [10]: > 100 µM
- TGI [11]: > 100 µM
- TGI [12]: > 100 µM
- TGI [13]: > 100 µM
- TGI [14]: > 100 µM
- TGI [15]: > 100 µM
- TGI [16]: > 100 µM
- TGI [17]: > 100 µM
- TGI [18]: > 100 µM
- TGI [19]: > 100 µM
- TGI [20]: > 100 µM
- TGI [21]: > 100 µM
- TGI [22]: > 100 µM
- TGI [23]: > 100 µM
- TGI [24]: > 100 µM
- TGI [25]: > 100 µM
- TGI [26]: > 100 µM
- TGI [27]: > 100 µM
- TGI [28]: > 100 µM
- TGI [29]: > 100 µM
- TGI [30]: > 100 µM
- TGI [31]: > 100 µM
- TGI [32]: > 100 µM
- TGI [33]: > 100 µM
- TGI [34]: > 100 µM
- TGI [35]: > 100 µM
- TGI [36]: > 100 µM
- TGI [37]: > 100 µM
- TGI [38]: > 100 µM
- TGI [39]: > 100 µM
- TGI [40]: > 100 µM
- TGI [41]: > 100 µM
- TGI [42]: > 100 µM
- TGI [43]: > 100 µM
- TGI [44]: > 100 µM
- TGI [45]: > 100 µM
- TGI [46]: > 100 µM
- TGI [47]: > 100 µM
- TGI [48]: 78.9 µM
- TGI [49]: > 100 µM
- TGI [50]: > 100 µM
- TGI [51]: > 100 µM
- TGI [52]: > 100 µM
- TGI [53]: > 100 µM

SMILES: CCCCN(CCCC)CCCCNc1c(C)cnc2cc(Cl)ccc12
- TGI [1]: 36.2 µM
- TGI [2]: 39.9 µM
- TGI [3]: > 100 µM
- TGI [4]: > 100 µM
- TGI [5]: > 100 µM
- TGI [6]: 33.2 µM
- TGI [7]: 68.2 µM
- TGI [8]: 42 µM
- TGI [9]: > 100 µM
- TGI [54]: > 100 µM
- TGI [10]: > 100 µM
- TGI [11]: 56.8 µM
- TGI [12]: 46.3 µM
- TGI [55]: 31 µM
- TGI [14]: 29.7 µM
- TGI [15]: > 100 µM
- TGI [16]: 32.5 µM
- TGI [18]: 96 µM
- TGI [19]: 43.4 µM
- TGI [21]: 25.1 µM
- TGI [22]: 56.9 µM
- TGI [24]: 33.5 µM
- TGI [25]: > 100 µM
- TGI [27]: > 100 µM
- TGI [28]: 57.8 µM
- TGI [29]: > 100 µM
- TGI [30]: 27 µM
- TGI [31]: 43.3 µM
- TGI [32]: 32.1 µM
- TGI [34]: > 100 µM
- TGI [35]: > 100 µM
- TGI [36]: > 100 µM
- TGI [38]: 39.1 µM
- TGI [39]: 36.7 µM
- TGI [41]: > 100 µM
- TGI [42]: 29.4 µM
- TGI [43]: > 100 µM
- TGI [56]: 35.6 µM
- TGI [44]: > 100 µM
- TGI [45]: 50.8 µM
- TGI [46]: 36.1 µM
- TGI [47]: 4.05 µM
- TGI [57]: > 100 µM
- TGI [48]: 28.6 µM
- TGI [50]: > 100 µM
- TGI [51]: 85.3 µM
- TGI [52]: 86.5 µM
- TGI [53]: > 100 µM

SMILES: N#CC(C#N)=CSc1ccccc1
- TGI [1]: > 100 µM
- TGI [2]: 72.3 µM
- TGI [3]: 52.4 µM
- TGI [5]: > 100 µM
- TGI [6]: 81.1 µM
- TGI [7]: > 100 µM
- TGI [8]: 76.3 µM
- TGI [58]: > 100 µM
- TGI [9]: > 100 µM
- TGI [54]: > 100 µM
- TGI [10]: 59.8 µM
- TGI [11]: > 100 µM
- TGI [12]: > 100 µM
- TGI [13]: > 100 µM
- TGI [55]: 45.2 µM
- TGI [14]: 26 µM
- TGI [15]: > 100 µM
- TGI [16]: > 100 µM
- TGI [17]: 35.7 µM
- TGI [18]: > 100 µM
- TGI [19]: 51.2 µM
- TGI [20]: 65.4 µM
- TGI [21]: 39.5 µM
- TGI [22]: 43 µM
- TGI [23]: 74.1 µM
- TGI [24]: > 100 µM
- TGI [25]: > 100 µM
- TGI [26]: > 100 µM
- TGI [27]: > 100 µM
- TGI [28]: 98.2 µM
- TGI [29]: > 100 µM
- TGI [30]: 42.3 µM
- TGI [31]: > 100 µM
- TGI [32]: 34.5 µM
- TGI [33]: > 100 µM
- TGI [34]: > 100 µM
- TGI [35]: > 100 µM
- TGI [36]: > 100 µM
- TGI [59]: > 100 µM
- TGI [37]: 82.2 µM
- TGI [38]: 68.9 µM
- TGI [39]: > 100 µM
- TGI [40]: 63.3 µM
- TGI [43]: 55.3 µM
- TGI [56]: 24.5 µM
- TGI [44]: > 100 µM
- TGI [45]: > 100 µM
- TGI [47]: 66.8 µM
- TGI [57]: > 100 µM
- TGI [48]: > 100 µM
- TGI [49]: 74.8 µM
- TGI [50]: > 100 µM
- TGI [51]: 54.1 µM
- TGI [53]: 37.1 µM

SMILES: COc1ccc(C2ON(c3ccccn3)CC=C2C)cc1 (stereo not given)
- TGI [2]: > 100 µM
- TGI [3]: > 100 µM
- TGI [4]: > 100 µM
- TGI [5]: > 100 µM
- TGI [6]: > 100 µM
- TGI [7]: > 100 µM
- TGI [58]: > 100 µM
- TGI [9]: > 100 µM
- TGI [54]: > 100 µM
- TGI [10]: > 100 µM
- TGI [11]: > 100 µM
- TGI [12]: > 100 µM
- TGI [13]: > 100 µM
- TGI [55]: > 100 µM
- TGI [14]: > 100 µM
- TGI [15]: > 100 µM
- TGI [16]: > 100 µM
- TGI [17]: > 100 µM
- TGI [19]: > 100 µM
- TGI [20]: > 100 µM
- TGI [21]: > 100 µM
- TGI [22]: > 100 µM
- TGI [23]: > 100 µM
- TGI [24]: > 100 µM
- TGI [25]: > 100 µM
- TGI [26]: > 100 µM
- TGI [27]: > 100 µM
- TGI [28]: > 100 µM
- TGI [29]: > 100 µM
- TGI [30]: > 100 µM
- TGI [31]: > 100 µM
- TGI [32]: > 100 µM
- TGI [33]: > 100 µM
- TGI [34]: > 100 µM
- TGI [35]: > 100 µM
- TGI [36]: > 100 µM
- TGI [59]: > 100 µM
- TGI [37]: > 100 µM
- TGI [38]: > 100 µM
- TGI [39]: > 100 µM
- TGI [40]: > 100 µM
- TGI [41]: > 100 µM
- TGI [42]: > 100 µM
- TGI [43]: > 100 µM
- TGI [56]: > 100 µM
- TGI [44]: > 100 µM
- TGI [45]: > 100 µM
- TGI [46]: > 100 µM
- TGI [47]: > 100 µM
- TGI [57]: > 100 µM
- TGI [48]: > 100 µM
- TGI [49]: > 100 µM
- TGI [50]: > 100 µM
- TGI [51]: > 100 µM
- TGI [53]: > 100 µM
